# Key:
# [1] = Inhibition of necroptosis in human HT-29 cells assessed as reduction in TNFalpha/BV6/zVAD-fmk-induced cell death incubated for 18 hrs by Cell Titer Glo luminescent cell viability assay; type: functional, cell-based; conditions: HT-29, 18 h
# [2] = target: T1, Receptor-interacting serine/threonine-protein kinase 1 (Homo sapiens, UniProt Q13546); test: Inhibition of recombinant human His/GST-tagged RIPK1 (2 to 257 residues) expressed in insect expression system incubated for 2 hrs by fluorescence polarization assay; conditions: read-out: Ki(app)
# T1 sequence (Q13546 whole entry): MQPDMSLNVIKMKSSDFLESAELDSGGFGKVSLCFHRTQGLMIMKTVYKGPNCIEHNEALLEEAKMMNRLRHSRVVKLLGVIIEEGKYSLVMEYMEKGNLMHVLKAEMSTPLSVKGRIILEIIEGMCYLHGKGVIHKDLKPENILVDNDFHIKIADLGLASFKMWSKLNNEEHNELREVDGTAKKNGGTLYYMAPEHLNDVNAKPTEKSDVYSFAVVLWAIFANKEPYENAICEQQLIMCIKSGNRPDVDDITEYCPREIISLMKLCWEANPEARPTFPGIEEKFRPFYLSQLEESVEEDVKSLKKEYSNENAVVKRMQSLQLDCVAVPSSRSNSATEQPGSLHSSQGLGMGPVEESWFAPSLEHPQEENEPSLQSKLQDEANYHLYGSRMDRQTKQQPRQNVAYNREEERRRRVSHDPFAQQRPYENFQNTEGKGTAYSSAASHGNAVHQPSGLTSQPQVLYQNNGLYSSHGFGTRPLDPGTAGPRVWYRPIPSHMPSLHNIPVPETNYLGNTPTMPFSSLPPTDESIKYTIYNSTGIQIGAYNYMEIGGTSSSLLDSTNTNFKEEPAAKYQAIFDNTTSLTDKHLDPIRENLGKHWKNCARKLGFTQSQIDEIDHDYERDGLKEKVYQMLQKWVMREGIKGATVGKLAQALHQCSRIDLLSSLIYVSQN
# [3] = Kinetic solubility of compound at pH 7.4; type: physicochemical; conditions: buffer, read-out: Kinetic_solubility
# [4] = Lipophilicity, logD of compound at pH 7.4; type: physicochemical; conditions: buffer
compound,measurement,setting,value
CN1C(=O)[C@@H](NC(=O)c2n[nH]c3c2CC(n2cccn2)CC3)COc2ccccc21 (mixture of isomers),EC50,[1],4.1 µM
CN1C(=O)[C@@H](NC(=O)c2n[nH]c3ccc(C(F)(F)F)cc23)COc2ccccc21,EC50,[1],0.028 µM
same,Ki,[2],0.005 µM
CN1C(=O)[C@@H](NC(=O)c2n[nH]c3c2CCC(C)(C)C3)COc2ccccc21,EC50,[1],> 20 µM
same,Ki,[2],> 10 µM
C[C@@H]1CCc2[nH]nc(C(=O)N[C@H]3COc4ccccc4N(C)C3=O)c2C1,EC50,[1],0.13 µM
CN1C(=O)[C@@H](NC(=O)c2ncn3ccc(C(F)(F)F)cc23)COc2ccccc21,EC50,[1],0.012 µM
same,Ki,[2],0.005 µM
CN1C(=O)[C@@H](NC(=O)c2nnc3ccc(C(F)(F)C(F)(F)F)nn23)COc2ccccc21,solubility kinetic,[3],164 µM
same,logD,[4],1.6
same,EC50,[1],0.13 µM
CN1C(=O)[C@@H](NC(=O)c2n[nH]c3c2C[C@H](C(C)(C)C)CC3)COc2ccccc21,EC50,[1],0.29 µM
CC(C)c1cnc2[nH]nc(C(=O)N[C@H]3COc4ccccc4N(C)C3=O)c2c1,solubility kinetic,[3],3.4 µM
same,logD,[4],3.5
same,EC50,[1],0.39 µM
C[C@H]1CCc2[nH]nc(C(=O)N[C@H]3COc4ccccc4N(C)C3=O)c2C1,EC50,[1],0.4 µM
CN1C(=O)[C@@H](NC(=O)c2n[nH]c3c2C[C@H](C(F)(F)F)CC3)COc2ccccc21,EC50,[1],0.043 µM
same,Ki,[2],0.007 µM
CN1C(=O)[C@@H](NC(=O)c2n[nH]c3c2CCC2(CC2)C3)COc2ccccc21,EC50,[1],> 20 µM
CN1C(=O)[C@@H](NC(=O)c2n[nH]c3ncc(C(F)(F)F)cc23)COc2ccccc21,solubility kinetic,[3],59 µM
same,logD,[4],3.3
same,EC50,[1],0.58 µM
CN1C(=O)[C@@H](NC(=O)c2n[nH]c3c2CC(C)(C)CC3)COc2ccccc21,EC50,[1],0.17 µM
same,Ki,[2],0.042 µM
CN1C(=O)[C@@H](NC(=O)c2n[nH]c3c2CCCC3)COc2ccccc21,EC50,[1],15 µM
CN1C(=O)[C@@H](NC(=O)c2nnn3c2CC(C(F)(F)C(F)(F)F)CC3)COc2ccccc21 (mixture of isomers),solubility kinetic,[3],57.1 µM
same,logD,[4],2
same,EC50,[1],0.064 µM
CN1C(=O)[C@@H](NC(=O)c2n[nH]c3c2CC(c2ccccc2)CC3)COc2ccccc21 (mixture of isomers),EC50,[1],0.52 µM
CN1C(=O)[C@@H](NC(=O)c2n[nH]c3c2CC2CC2C3)COc2ccccc21 (mixture of isomers),EC50,[1],7 µM
CN1C(=O)[C@@H](NC(=O)c2nnn3c2C[C@H](C(F)(F)F)CC3)COc2ccccc21,solubility kinetic,[3],99 µM
same,logD,[4],1.5
same,EC50,[1],0.21 µM
"CN1C(=O)[C@@H](NC(=O)c2n[nH]c3c2C2CC2CC3)COc2ccccc21 (single isomer, unassigned; diastereomer 1)",EC50,[1],6.9 µM
CN1C(=O)[C@@H](NC(=O)c2nnc3ccc(C(F)(F)F)nn23)COc2ccccc21,solubility kinetic,[3],160 µM
same,logD,[4],1
same,EC50,[1],2.4 µM
CN1C(=O)[C@@H](NC(=O)c2nnc[nH]2)COc2ccccc21,EC50,[1],> 20 µM
same,Ki,[2],> 10 µM
CN1C(=O)[C@@H](NC(=O)c2nn(C)c3c2C[C@H](C(F)(F)F)CC3)COc2ccccc21,EC50,[1],0.5 µM
same,Ki,[2],0.063 µM
